Like-named read-outs stand apart in the source and are kept apart here.
Columns and labels:
rat [1] = assay: Rat hot plate test, single intravenous elcatonin (Example 10); type: in vivo
Experimental: A total of 24 rats, ranging in weight from 320 to 420 g, was used in this study. Four to eight rats were used for each dose level. […] The doses used were 10, 30, 100 and 300 IU/kg (1.61, 4.83, 16.1 and 48.3 μg/kg, respectively).

rat [2] = assay: Rat hot plate test, five consecutive daily intrathecal doses of elcatonin (Example 11); type: in vivo; conditions: 4.4 IU/kg intrathecal, five consecutive daily doses (FIG. 7)
Experimental: Intrathecal catheters were implanted in rats as described hereinabove, and a 7-10 day period thereafter allowed for full recovery from the surgical procedures.
Eighteen rats were assigned to three treatment groups of six rats per group. The study is conducted in two treatment phases at one week intervals. Treatment Group I rats receive no treatment. Group II rats receive five consecutive daily intrathecal doses of sterile physiological saline (vehicle control).
For each treatment, hot plate latencies are determined as described in Example 5 herein above at 0 minutes (predose, baseline), 1 hour, 3 hours, and 24 hours following injection on the first, third, and fifth study days.

rat [3] = assay: Rat hot plate test, intrathecal elcatonin with 0.1% human serum albumin (Example 13); type: in vivo; conditions: 4.4 IU/kg intrathecal in 0.1% HSA, 5 day multiple administrations (FIG. 9)
Experimental: On each study day, a standard 25% (wt/vol) solution of HSA is diluted under aseptic conditions with physiological saline ([…] of NaCl, USP grade) to achieve the desired stock solution concentration of 0.2% (wt/vol).
Thirty-two male rats (320-420 g) are obtained, adapted, catheterized and recovered as described hereinabove. […] Group II rats are injected intrathecally with a dose of 4.4 IU/kg in physiological saline containing 0.1% HSA, in a volume of 10 μL/kg. Group III rats are injected with physiological saline containing 0.1% HSA, 10 μL/kg. Each dose is followed by a washout of 8 μL of physiological saline.
In each of the study groups, hot plate latencies are determined at 0 minutes (baseline, predose), 1 hour, 3 hours, 6 hours, and 24 hours following intrathecal injections on the 1st, 3rd and 5th study days.

rat [4] = conditions: 2.4 IU/kg (0.39 μg/kg, 0.12 nmol/kg) intrathecal single
Experimental: Intrathecal catheters were surgically implanted in the rats after application of anesthetic (Nembutal, 30 mg/kg, intraperitoneal) 5-7 days prior to the test procedure. The 5-7 day period prior to testing allowed for full recovery from the surgical procedures. […] Each catheter was anchored to the skull with cyanoacrylate adhesive, and the skull was closed with wound clips. The free end of each catheter was heat annealed; when compositions were to be injected via the intrathecal route each composition was introduced therein using a Hamilton needle inserted into the sealed catheter.
Pain sensitivity was assessed using a standard analgesiometric hot plate test (Woolfe and MacDonald (1944) J. Pharmacol. Exp. Ther. 80:300). The hot plate response was determined by placing a rat on a 55° C. copper hot plate enclosed in a plexiglass cylinder.
Because of the technical demands of these experiments, no more than 8-9 rats were tested on a given day. Sufficient animals were studied to obtain 10-11 evaluable rats per test condition. On the study day, animals were tested for baseline hot plate responses, and then received bolus injections of test analgesic or physiological saline (control). Hot plate responses were assessed again at 15 min, 30 min, 1 hr, 3 hr, 6 hr and 24 hr after intrathecal injection of test compound or vehicle control.
Ninety-six (96) rats, ranging in weight from 320 g to 420 g, were used in this study. Catheters were implanted and recovery was allowed for as described hereinabove. […] Drug or saline vehicle doses were administered using Hamilton needles inserted into the catheters, with a dose volumes of 37.5 μL/kg followed by a 10 μL saline catheter wash-out. Baseline (pre-drug) and responses at 15 min, 30 min, 1 hr, 3 hr, 6 hr and 24 hr after drug or vehicle injection were determined.

Q: What does the source list for “[Des-Cys^1,ASU^7 ]-Calcitonin, Eel [Elcatonin]”?
A: Hot Plate Latency (Mean ± SEM) (rat [1]; 10.0 IU/kg (1.61 μg/kg) intravenous single, 0 hr (baseline)): 12.03 ± 1.02 s; Hot Plate Latency (Mean ± SEM) (rat [1]; 10.0 IU/kg (1.61 μg/kg) intravenous single, 0.25 hr): 11.95 ± 1.40 s; Hot Plate Latency (Mean ± SEM) (rat [1]; 10.0 IU/kg (1.61 μg/kg) intravenous single, 0.5 hr): 15.64 ± 2.39 s; Hot Plate Latency (Mean ± SEM) (rat [1]; 10.0 IU/kg (1.61 μg/kg) intravenous single, 1 hr): 14.95 ± 2.92 s; Hot Plate Latency (Mean ± SEM) (rat [1]; 10.0 IU/kg (1.61 μg/kg) intravenous single, 3 hr): 14.11 ± 0.94 s; Hot Plate Latency (Mean ± SEM) (rat [1]; 10.0 IU/kg (1.61 μg/kg) intravenous single, 6 hr): 10.45 ± 1.03 s; Hot Plate Latency (Mean ± SEM) (rat [1]; 10.0 IU/kg (1.61 μg/kg) intravenous single, 24 hr): 8.86 ± 1.23 s; Hot Plate Latency (Mean ± SEM) (rat [1]; 30.0 IU/kg (4.83 μg/kg) intravenous single, 0 hr (baseline)): 10.71 ± 1.02 s; Hot Plate Latency (Mean ± SEM) (rat [1]; 30.0 IU/kg (4.83 μg/kg) intravenous single, 0.25 hr): 10.04 ± 0.96 s; Hot Plate Latency (Mean ± SEM) (rat [1]; 30.0 IU/kg (4.83 μg/kg) intravenous single, 0.5 hr): 12.18 ± 1.22 s; Hot Plate Latency (Mean ± SEM) (rat [1]; 30.0 IU/kg (4.83 μg/kg) intravenous single, 1 hr): 14.14 ± 1.14 s; Hot Plate Latency (Mean ± SEM) (rat [1]; 30.0 IU/kg (4.83 μg/kg) intravenous single, 3 hr): 14.26 ± 1.39 s; Hot Plate Latency (Mean ± SEM) (rat [1]; 30.0 IU/kg (4.83 μg/kg) intravenous single, 6 hr): 15.12 ± 2.20 s; Hot Plate Latency (Mean ± SEM) (rat [1]; 30.0 IU/kg (4.83 μg/kg) intravenous single, 24 hr): 10.76 ± 1.25 s; Hot Plate Latency (Mean ± SEM) (rat [1]; 100.0 IU/kg (16.1 μg/kg) intravenous single, 0 hr (baseline)): 13.53 ± 1.63 s; Hot Plate Latency (Mean ± SEM) (rat [1]; 100.0 IU/kg (16.1 μg/kg) intravenous single, 0.25 hr): 11.05 ± 1.99 s; Hot Plate Latency (Mean ± SEM) (rat [1]; 100.0 IU/kg (16.1 μg/kg) intravenous single, 0.5 hr): 9.63 ± 1.21 s; Hot Plate Latency (Mean ± SEM) (rat [1]; 100.0 IU/kg (16.1 μg/kg) intravenous single, 1 hr): 11.20 ± 1.95 s; Hot Plate Latency (Mean ± SEM) (rat [1]; 100.0 IU/kg (16.1 μg/kg) intravenous single, 3 hr): 14.76 ± 1.19 s; Hot Plate Latency (Mean ± SEM) (rat [1]; 100.0 IU/kg (16.1 μg/kg) intravenous single, 6 hr): 14.00 ± 1.83 s; Hot Plate Latency (Mean ± SEM) (rat [1]; 100.0 IU/kg (16.1 μg/kg) intravenous single, 24 hr): 14.30 ± 1.33 s; Hot Plate Latency (Mean ± SEM) (rat [1]; 300.0 IU/kg (48.3 μg/kg) intravenous single, 0 hr (baseline)): 11.22 ± 0.38 s; Hot Plate Latency (Mean ± SEM) (rat [1]; 300.0 IU/kg (48.3 μg/kg) intravenous single, 0.25 hr): 11.05 ± 3.82 s; Hot Plate Latency (Mean ± SEM) (rat [1]; 300.0 IU/kg (48.3 μg/kg) intravenous single, 0.5 hr): 11.65 ± 2.31 s; Hot Plate Latency (Mean ± SEM) (rat [1]; 300.0 IU/kg (48.3 μg/kg) intravenous single, 1 hr): 12.65 ± 2.09 s; Hot Plate Latency (Mean ± SEM) (rat [1]; 300.0 IU/kg (48.3 μg/kg) intravenous single, 3 hr): 17.37 ± 4.25 s; Hot Plate Latency (Mean ± SEM) (rat [1]; 300.0 IU/kg (48.3 μg/kg) intravenous single, 6 hr): 11.55 ± 2.80 s; Hot Plate Latency (Mean ± SEM) (rat [1]; 300.0 IU/kg (48.3 μg/kg) intravenous single, 24 hr): 10.52 s; intravenous dose producing a hot plate latency similar to 1.6 IU/kg (0.25 μg/kg) intrathecal (rat [1]; at 0.5 hr): 10.0 IU/kg; increase in hot plate latencies (rat [1]; intravenous, 10-300 IU/kg): only small increases in hot plate latencies; time of peak effects (rat [1]; intravenous, 10 IU/kg): 30 min; dose response effect (rat [1]; intravenous, 10 to 300 IU/kg): No significant dose response effect was observed; time of peak effects (rat [1]; intravenous, 30-300 IU/kg): 180 to 360 min; hot plate latency (rat [2]): hot plate latency is increased; hot plate latency at 24 hr after each successive injection (rat [2]): greater hot plate latency, and a cumulative analgesic effect over time; hot plate latency (rat [3]): increase in rat hot plate latency; Hot Plate Latency (Mean ± SEM) (rat [4]; 0 hr (baseline)): 13.54 ± 1.91 s; Hot Plate Latency (Mean ± SEM) (rat [4]; 0.25 hr): 19.70 ± 1.75 s; Hot Plate Latency (Mean ± SEM) (rat [4]; 0.5 hr): 23.90 ± 3.12 s; Hot Plate Latency (Mean ± SEM) (rat [4]; 1 hr): 24.68 ± 1.80 s

Reference: patent publication US5721207A, “Method for treatment of pain” (Innapharma, Inc., priority 1995, dated 1998)
